The record followed here is ChEMBL document CHEMBL1150755, “2,4,5-trimethoxystyrene, a bioactive component of the bark of Duguetia panamensis” (J Nat Prod, 1988).

A short description of data set [1]: Cytotoxicity against mouse 9PS cells. In kind it is functional. Particulars: read-out: ED50 (the source's name).
In a further data set the test system is Artemia. The data set is described as follows: Toxicity in brine shrimp. The format is organism-based. The note with it: in vivo.
Data set [2] in a line: Cytotoxicity against human 9KB cells. The note with it: read-out: ED50 (the source's name). The format is functional.

Values after ≈ are worked out from the molar mass of the structure shown.

Broadly, the LC50 is the concentration that kills 50% of the test population. Higher therefore signals lower toxicity. For `C=Cc1cc(OC)c(OC)cc1OC`, the EC50 amounted to 27 µg/mL (≈ 139 µM) in data set [1] and 42 µg/mL (≈ 216 µM) in data set [2]. This molecule also returned an LC50 in the data set on Artemia of 8 ppm.
